# Measurements reported in patent publication US9586970B2, “Imidazole derivatives” (Hoffmann-La Roche Inc., priority 2014, dated 2017).
# Target: human PDE10A (Homo sapiens (Human), UniProt Q9Y233)
# Test: human PDE10A full length assay ([3H]-cGMP SPA)
# Type: biochemical
# Settings: full length PDE10A enzyme, 50 nM cGMP + 50 nM [3H]-cGMP, 20 minutes at room temperature; read-out: PDE10A inhibition IC50
# Experimental: The human PDE10A full length assay was performed in 96-well micro titer plates. The reaction mixture of 50 μl contained 20 mM HEPES pH=7.5/10 mM MgCl2/0.05 mg/ml BSA (Sigma cat. #A-7906), 50 nM cGMP (Sigma, cat. #G6129) and 50 nM [3H]-cGMP (GE Healthcare, cat. #TRK392 S.A. 13.2 Ci/mmol), 3.75 ng/well PDE10A enzyme (Enzo Life Science, Lausen, Switzerland cat #SE-534) with or without a specific test compound. A range of concentrations of the potential inhibitor was used to generate data for calculating the concentration of inhibitor resulting in 50% of the effect (e.g. IC50, the concentration of the competitor inhibiting PDE10A activity by 50%). Non-specific activity was tested without the enzyme. The reaction was initiated by the addition of the substrate solution (cGMP and [3H]-cGMP) and allowed to progress for 20 minutes at room temperature. The reaction was terminated by adding 25 μl of YSi-SPA scintillation beads (GE Healthcare, cat. # RPNQ0150) in 18 mM zinc sulphate solution (stop reagent). After 1 h under shaking, the plate was centrifuged one minute at 170 g to allow beads to settle. Afterwards, radioactive counts were measured on a Perkin Elmer TopCount Scintillation plate reader.
# Chain of human PDE10A (Q9Y233 other isoform, or with tags, fused parts or gaps): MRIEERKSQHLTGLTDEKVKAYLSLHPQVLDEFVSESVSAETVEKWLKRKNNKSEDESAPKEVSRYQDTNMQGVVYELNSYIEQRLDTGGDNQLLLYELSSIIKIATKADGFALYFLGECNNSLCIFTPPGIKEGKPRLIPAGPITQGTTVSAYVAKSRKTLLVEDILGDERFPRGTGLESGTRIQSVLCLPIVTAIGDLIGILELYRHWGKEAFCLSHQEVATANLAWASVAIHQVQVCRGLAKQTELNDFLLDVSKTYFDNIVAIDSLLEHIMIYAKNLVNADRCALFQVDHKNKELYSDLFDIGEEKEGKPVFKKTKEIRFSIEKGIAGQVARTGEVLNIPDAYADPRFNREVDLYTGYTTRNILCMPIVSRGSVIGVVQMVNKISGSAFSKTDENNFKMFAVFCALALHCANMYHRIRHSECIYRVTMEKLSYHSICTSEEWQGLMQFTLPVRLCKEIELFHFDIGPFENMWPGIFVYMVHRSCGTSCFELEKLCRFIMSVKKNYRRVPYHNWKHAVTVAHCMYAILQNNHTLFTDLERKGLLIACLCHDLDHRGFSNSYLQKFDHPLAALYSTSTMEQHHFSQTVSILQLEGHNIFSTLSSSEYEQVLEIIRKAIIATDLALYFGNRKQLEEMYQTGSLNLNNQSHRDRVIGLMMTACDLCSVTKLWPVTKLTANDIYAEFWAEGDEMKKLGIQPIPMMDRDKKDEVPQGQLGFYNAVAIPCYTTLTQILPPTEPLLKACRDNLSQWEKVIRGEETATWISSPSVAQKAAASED
row,Molecule,IC50
1,"Cc1nc(C#Cc2nc(N3CCCC3=O)cn2C)nc2c(C)cccc12 [Example 9, 1-(2-((4,8-dimethylquinazolin-2-yl)ethynyl)-1-methyl-1H-imidazol-4-yl)pyrrolidin-2-one]",4.6 nM
2,"Cc1ncc(C)n2nc(CCc3nc(N4CCCC4=O)cn3CC3CC3)nc12 [Example 12, 1-[1-(Cyclopropylmethyl)-2-(2-{4,7-dimethyl-[1,2,4]triazolo[1,5-a]pyrazin-2-yl}ethyl)-1H-imidazol-4-yl]pyrrolidin-2-one]",16.9 nM
3,"Cc1ncc(C)n2nc(CCc3nc(N4CCCC4=O)cn3-c3ccccc3)nc12 [Example 2, 1-(2-(2-(5,8-dimethyl-[1,2,4]triazolo[1,5-a]pyrazin-2-yl)ethyl)-1-phenyl-1H-imidazol-4-yl)pyrrolidin-2-one]",1.3 nM
4,Cc1ncc(C)n2nc(/C=C/c3nc(N4CCCC4=O)cn3-c3ccccc3)nc12 [Example 3],9.5 nM
5,"Cc1c(C(F)(F)F)nc2ccc(CCc3nc(N4CCCC4=O)cn3C)nn12 [Example 22, 1-(1-Methyl-2-{2-[3-methyl-2-(trifluoromethyl)imidazo[1,2-b]pyridazin-6-yl]ethyl}-1H-imidazol-4yl) pyrrolidin-2-one]",117 nM
6,"Cc1c(C(F)(F)F)nc2ccc(CCc3nc(N4CCCC4=O)cn3-c3ccccc3)nn12 [Example 23, 1-(2-{2-[3-Methyl-2-(trifluoromethyl)imidazo[1,2-b]pyridazin-6-yl]ethyl}-1-phenyl-1H-imidazol-4yl)pyrrolidin-2-one]",3.1 nM
7,"1-{2-[(E)-2-{4,7-Dimethyl-[1,2,4]triazolo[1,5-a]pyrazin-2-yl}ethenyl]-1-phenyl-1H-imidazol-4-yl}pyrrolidin-2-one [Example 20]",19.4 nM
8,"Cc1c(C(F)(F)F)nc2ccc(C#Cc3nc(N4CCCC4=O)cn3-c3ccccc3)nn12 [Example 25, 1-(2-{2-[3-methyl-2-(trifluoromethyl)imidazo[1,2-b]pyridazin-6-yl]ethynyl}-1-phenyl-1H-imidazol-4-yl) pyrrolidin-2-one]",21.9 nM
9,"Cc1c(C(F)(F)F)nc2ccc(C#Cc3nc(N4CCCC4=O)cn3C)nn12 [Example 24, 1-(1-Methyl-2-{2-[3-methyl-2-(trifluoromethyl)imidazo[1,2-b]pyridazin-6-yl]ethynyl}-1H-imidazol-4-yl)pyrrolidin-2-one]",75.5 nM
10,"Cc1cnc(C)n2nc(CCc3nc(N4CCCC4=O)cn3CC(F)(F)F)nc12 [Example 18, 1-[2-(2-{5,8-dimethyl-[1,2,4]triazolo[1,5-c]pyrimidin-2-yl}ethyl)-1-(2,2,2-trifluoroethyl)-1H-imidazol-4-yl]pyrrolidin-2-one]",168 nM
11,"Cc1ncc(C)n2nc(CCc3nc(-n4ccccc4=O)cn3C)nc12 [Example 5, 1-(2-(2-(5,8-dimethyl-[1,2,4]triazolo[1,5-a]pyrazin-2-yl)ethyl)-1-methyl-1H-imidazol-4-yl)pyridin-2(1H)-one]",195 nM
12,"Cc1ncc(C)n2nc(CCc3nc(N4CCCC4=O)cn3C3CC3)nc12 [Example 7, 1-{1-Cyclopropyl-2-[2-(5,8-dimethyl-[1,2,4]triazolo[1,5-a]pyrazin-2-yl)-ethyl]-1H-imidazol-4-yl}-pyrrolidin-2-one]",27 nM
13,"Cc1cnc(C)n2nc(CCc3nc(N4CCCC4=O)cn3C)nc12 [Example 1, 1-(2-(2-(5,8-dimethyl-[1,2,4]triazolo[1,5-c]pyrimidin-2-yl)ethyl)-1-methyl-1H-imidazol-4-yl)pyrrolidin-2-one]",39 nM
14,"Cc1ncc(C)n2nc(CCc3nc(-n4ccccc4=O)cn3CC3CC3)nc12 [Example 4, 1-(1-(Cyclopropylmethyl)-2-(2-(5,8-dimethyl-[1,2,4]triazolo[1,5-a]pyrazin-2-yl)ethyl)-1H-imidazol-4-yl)pyridin-2(1H)-one]",150 nM
15,"Cc1ncc(C)n2nc(CCc3nc(N4CCCC4=O)cn3CC(F)F)nc12 [Example 14, 1-[1-(2,2-difluoroethyl)-2-(2-{4,7-dimethyl-[1,2,4]triazolo[1,5-a]pyrazin-2-yl}ethyl)-1H-imidazol-4-yl]pyrrolidin-2-one]",46.9 nM
16,"Cc1cc(C)n2nc(CCc3nc(N4CCCC4=O)cn3C)nc2n1 [Example 21, 1-[2-(2-{5,7-dimethyl-[1,2,4]triazolo[1,5-a]pyrimidin-2-yl}ethyl)-1-methyl-1H-imidazol-4-yl]pyrrolidin-2-one]",176 nM

# The remaining lines, values ahead:
row,IC50,Molecule
1,29 nM,"Cc1ncc(C)n2nc(C#Cc3nc(N4CCCC4=O)cn3C)nc12 [Example 15, 1-[2-(2-{4,7-Dimethyl-[1,2,4]triazolo[1,5-a]pyrazin-2-yl}ethynyl)-1-methyl-1H-imidazol-4-yl]pyrrolidin-2-one]"
2,2.9 nM,"CNC(=O)c1cc(CCc2nc(N3CCCC3=O)cn2-c2ccccc2)nn2c(C)c(C(F)(F)F)nc12 [Example 27, N,3-Dimethyl-6-{2-[4-(2-oxopyrrolidin-1-yl)-1-phenyl-1H-imidazol-2-yl]ethyl}-2-(trifluoromethyl)imidazo[1,2-b]pyridazine-8-carb oxamide]"
3,81 nM,"Cc1ncc(C)n2nc(/C=C/c3nc(N4CCCC4=O)cn3C3CC3)nc12 [Example 6, 1-[1-cyclopropyl-2-[(E)-2-(5,8-dimethyl-[1,2,4]triazolo[1,5-a]pyrazin-2-yl)ethenyl]imidazol-4-yl]pyrrolidin-2-one]"
4,18 nM,"Cc1ncc(C)n2nc(CCc3nc(N4CCCC4=O)cn3C)nc12 [Example 11, 1-[2-(2-{4,7-Dimethyl-[1,2,4]triazolo[1,5-a]pyrazin-2-yl}ethyl)-1-methyl-1H-imidazol-4-yl]pyrrolidin-2-one]"
5,162 nM,"Cc1ncc(C)n2nc(/C=C/c3nc(N4CCN(C)C4=O)cn3C)nc12 [Example 8, 2′-[(E)-2-(5,8-Dimethyl-[1,2,4]triazolo[1,5-a]pyrazin-2-yl)-vinyl]-3, 1′-dimethyl-4,5-dihydro-3H, 1′H-[1,4′]biimidazolyl-2-one]"
6,3.2 nM,"Cc1cnc(C)n2nc(CCc3nc(N4CCCC4=O)cn3-c3ccccc3)nc12 [Example 17, 1-[2-[2-(5,8-dimethyl-[1,2,4]triazolo[1,5-c]pyrimidin-2-yl)ethyl]-1-phenyl-imidazol-4-yl]pyrrolidin-2-one]"
7,26.8 nM,"Cc1cnc(C)n2nc(CCc3nc(N4CCCC4=O)cn3CC(F)F)nc12 [Example 19, 1-[1-(2,2-difluoroethyl)-2-(2-{5,8-dimethyl-[1,2,4]triazolo[1,5-c]pyrimidin-2-yl}ethyl)-1H-imidazol-4-yl]pyrrolidin-2-one]"
8,36.7 nM,"Cc1ncc(C)n2nc(CCc3nc(N4CCCC4=O)cn3CC(F)(F)F)nc12 [Example 13, 1-[2-(2-{4,7-Dimethyl-[1,2,4]triazolo[1,5-a]pyrazin-2-yl}ethyl)-1-(2,2,2-trifluoroethyl)-1H-imidazol-4-yl]pyrrolidin-2-one]"
9,112 nM,CNC(=O)c1cc(CCc2nc(N3CCCC3=O)cn2C)nn2c(C)c(C(F)(F)F)nc12 [Example 26]
10,14.8 nM,"Cc1cnc(C)n2nc(CCc3nc(N4CCCC4=O)cn3CC3CC3)nc12 [Example 16, 1-[1-(Cyclopropylmethyl)-2-(2-{5,8-dimethyl-[1,2,4]triazolo[1,5-c]pyrimidin-2-yl}ethyl)-1H-imidazol-4-yl]pyrrolidin-2-one]"
11,54.6 nM,"Cc1ncc(C)n2nc(/C=C/c3nc(N4CCCC4=O)cn3C)nc12 [Example 10, 1-{2-[(E)-2-{4,7-dimethyl-[1,2,4]triazolo[1,5-a]pyrazin-2-yl}ethenyl]-1-methyl-1H-imidazol-4-yl}pyrrolidin-2-one]"
